IC50 data for 17 molecules are collected here from patent US20230295182A1, “SPIRO DERIVATIVES OF ALPHA-D-GALACTOPYRANOSIDES” (Idorsia Pharmaceuticals Ltd, priority 2020, published 2023).

SMILES strings stand for the structures.

One assay concerns the target human Gal-1 (hGal-1) (Homo sapiens, UniProt P09382). In words: Competitive binding assay: biotinylated hGal-1 to microplate-adsorbed asialofetuin (ASF). The following applies: Activities on hGal-1; binding to ASF-coated plates, 3 hours at 4° C.; mean values; read-out: Gal-1 IC50. Summed up:
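Plate-adsorbed asialofetuin is incubated 3 h at 4 °C with biotinylated hGal-1, optionally its all-serine-substituted cysteine variant, plus compound dilutions. ABTS color after 1 h streptavidin-peroxidase (80 ng/mL) at 4 °C reports binding. Reported IC50 is a mean across repeat runs.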

The target in another assay is human Gal-3 (hGal-3) (Homo sapiens (Human), UniProt P17931). In words: Competitive binding assay: biotinylated hGal-3 to microplate-adsorbed asialofetuin (ASF). Conditions: Activity on hGal-3; binding to ASF-coated plates, 3 hours at 4° C.; mean values. Summed up:
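Biotinylated hGal-3 (300-1000 ng/mL) binding to plate-adsorbed asialofetuin, with DMSO-diluted compound added, incubated 3 h at 4 °C. After washing, bound protein detected with streptavidin-peroxidase (80 ng/mL, 1 h, 4 °C) and ABTS substrate, read spectrophotometrically. IC50 given as mean of several measurements.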

Chain of human Gal-1 (hGal-1) (P09382 2-135 limits assumed): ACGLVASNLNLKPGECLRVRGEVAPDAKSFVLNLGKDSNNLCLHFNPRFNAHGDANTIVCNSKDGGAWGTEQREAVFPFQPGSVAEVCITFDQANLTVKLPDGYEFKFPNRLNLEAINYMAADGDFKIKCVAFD
Chain of human Gal-3 (hGal-3) (P17931 whole entry): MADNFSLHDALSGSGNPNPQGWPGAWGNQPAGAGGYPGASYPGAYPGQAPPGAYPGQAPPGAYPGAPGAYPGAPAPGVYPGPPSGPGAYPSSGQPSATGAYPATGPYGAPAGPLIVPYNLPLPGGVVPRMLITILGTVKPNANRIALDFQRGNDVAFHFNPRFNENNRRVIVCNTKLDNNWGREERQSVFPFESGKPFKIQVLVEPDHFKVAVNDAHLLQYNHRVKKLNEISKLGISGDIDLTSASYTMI

On to `CO[C@@H]1[C@@H](n2cc(-c3cc(F)c(F)c(F)c3)nn2)[C@@H](O)[C@@H](CO)O[C@@H]1CC1=NOC2(CCOCC2)C1` [Example 1.23, (2R,3R,4S,5R,6R)-6-((1,8-dioxa-2-azaspiro[4.5]dec-2-en-3-yl)methyl)-2-(hydroxymethyl)-5-methoxy-4-(4-(3,4,5-trifluorophenyl)-1H-1,2,3-triazol-1-yl)tetrahydro-2H-pyran-3-ol], for which the figures for the IC50 on human Gal-1 (hGal-1) and at human Gal-3 (hGal-3) were 3.5 µM and 0.76 µM, respectively.
Taken in the same sequence, the figures for `CO[C@@H]1[C@@H](n2cc(-c3ccc(Cl)c(F)c3F)nn2)[C@@H](O)[C@@H](CO)O[C@@H]1CC1=NO[C@]2(CC[C@H](C#N)CC2)C1` [Example 1.61, (5r,8R)-3-(((2R,3R,4S,5R,6R)-4-(4-(4-chloro-2,3-difluorophenyl)-1H-1,2,3-triazol-1-yl)-5-hydroxy-6-(hydroxymethyl)-3-methoxytetrahydro-2H-pyran-2-yl)methyl)-1-oxa-2-azaspiro[4.5]dec-2-ene-8-carbonitrile] were 0.46 µM and 0.049 µM.
For `CCOC(=O)N[C@H]1CC[C@]2(CC1)CC(C[C@H]1O[C@H](CO)[C@H](O)[C@H](n3cc(-c4ccc(F)c(F)c4F)nn3)[C@H]1OC)=NO2` [Example 2.10, ethyl ((5r,8R)-3-(((2R,3R,4S,5R,6R)-5-hydroxy-6-(hydroxymethyl)-3-methoxy-4-(4-(2,3,4-trifluorophenyl)-1H-1,2,3-triazol-1-yl)tetrahydro-2H-pyran-2-yl)methyl)-1-oxa-2-azaspiro[4.5]dec-2-en-8-yl)carbamate] the same measures were 0.32 µM and 0.02 µM.
For `CO[C@@H]1[C@@H](n2cc(-c3cc(F)c(F)c(F)c3)nn2)[C@@H](O)[C@@H](CO)O[C@@H]1CC1=NO[C@]2(CC[C@@H](NC(=O)OC(C)(C)C)CC2)C1` [Example 1.16, tert-butyl ((5s,8S)-3-(((2R,3R,4S,5R,6R)-5-hydroxy-6-(hydroxymethyl)-3-methoxy-4-(4-(3,4,5-trifluorophenyl)-1H-1,2,3-triazol-1-yl)tetrahydro-2H-pyran-2-yl)methyl)-1-oxa-2-azaspiro[4.5]dec-2-en-8-yl)carbamate] the same measures were 2.3 µM and 0.34 µM.
Take `CO[C@@H]1[C@@H](n2cc(-c3cc(F)c(F)c(F)c3)nn2)[C@@H](O)[C@@H](CO)O[C@@H]1CC1=NOC2(CCC(NC3CC3)CC2)C1` (stereo partly drawn) [Example 2.16, (2R,3R,4S,5R,6R)-6-((8-(cyclopropylamino)-1-oxa-2-azaspiro[4.5]dec-2-en-3-yl)methyl)-2-(hydroxymethyl)-5-methoxy-4-(4-(3,4,5-trifluorophenyl)-1H-1,2,3-triazol-1-yl)tetrahydro-2H-pyran-3-ol]: the IC50 – broadly, the concentration at which inhibition is half-maximal – on human Gal-1 (hGal-1) was determined as 2.4 µM; at human Gal-3 (hGal-3), 0.24 µM.
For `CO[C@@H]1[C@@H](n2cc(-c3ccc(Cl)c(F)c3F)nn2)[C@@H](O)[C@@H](CO)O[C@@H]1CC1=NO[C@]2(CC[C@@H](NC(=O)OC(C)(C)C)CC2)C1` [Example 1.46, tert-butyl ((5s,8S)-3-(((2R,3R,4S,5R,6R)-4-(4-(4-chloro-2,3-difluorophenyl)-1H-1,2,3-triazol-1-yl)-5-hydroxy-6-(hydroxymethyl)-3-methoxytetrahydro-2H-pyran-2-yl)methyl)-1-oxa-2-azaspiro[4.5]dec-2-en-8-yl)carbamate] the same measures were 1.8 µM and 0.06 µM.
Taken in the same sequence, the figures for `CO[C@@H]1[C@@H](n2cc(-c3ccc(Cl)c(F)c3F)nn2)[C@@H](O)[C@@H](CO)O[C@@H]1CC1=NO[C@]2(CC[C@@H](C(C)(C)O)CC2)C1` [Example 1.65, (2R,3R,4S,5R,6R)-4-(4-(4-chloro-2,3-difluorophenyl)-1H-1,2,3-triazol-1-yl)-2-(hydroxymethyl)-6-(((5s,8S)-8-(2-hydroxypropan-2-yl)-1-oxa-2-azaspiro[4.5]dec-2-en-3-yl)methyl)-5-methoxytetrahydro-2H-pyran-3-ol] were 2.7 µM and 0.12 µM.
Taken in the same sequence, the figures for `CO[C@@H]1[C@@H](n2cc(-c3ccc(Cl)c(F)c3F)nn2)[C@@H](O)[C@@H](CO)O[C@@H]1CC1=NOC2(C1)C[C@@H](C(=O)O)N(C(=O)OC(C)(C)C)C2` (mixture of isomers) [Example 1.78, (5RS,8S)-7-(tert-butoxycarbonyl)-3-(((2R,3R,4S,5R,6R)-4-(4-(4-chloro-2,3-difluorophenyl)-1H-1,2,3-triazol-1-yl)-5-hydroxy-6-(hydroxymethyl)-3-methoxytetrahydro-2H-pyran-2-yl)methyl)-1-oxa-2,7-diazaspiro[4.4]non-2-ene-8-carboxylic acid] were 12 µM and 0.27 µM.
On to `CO[C@@H]1[C@@H](n2cc(-c3cc(F)c(F)c(F)c3)nn2)[C@@H](O)[C@@H](CO)O[C@@H]1CC1=NOC2(CCN(C(C)=O)CC2)C1` [Example 2.30, 1-(3-(((2R,3R,4S,5R,6R)-5-hydroxy-6-(hydroxymethyl)-3-methoxy-4-(4-(3,4,5-trifluorophenyl)-1H-1,2,3-triazol-1-yl)tetrahydro-2H-pyran-2-yl)methyl)-1-oxa-2,8-diazaspiro[4.5]dec-2-en-8-yl)ethan-1-one], for which the IC50 at human Gal-1 (hGal-1) is 2.8 µM; on human Gal-3 (hGal-3), 0.28 µM.
For `CO[C@@H]1[C@@H](n2cc(-c3cc(F)c(F)c(F)c3)nn2)[C@@H](O)[C@@H](CO)O[C@@H]1CC1=NOC2(CCN(C(=O)OC(C)(C)C)CC2)C1` [Example 1.06, tert-butyl 3-(((2R,3R,4S,5R,6R)-5-hydroxy-6-(hydroxymethyl)-3-methoxy-4-(4-(3,4,5-trifluorophenyl)-1H-1,2,3-triazol-1-yl)tetrahydro-2H-pyran-2-yl)methyl)-1-oxa-2,8-diazaspiro[4.5]dec-2-ene-8-carboxylate] the same measures were 4.2 µM and 0.34 µM.
Taken in the same sequence, the figures for `CO[C@@H]1[C@@H](n2cc(-c3cc(F)c(F)c(F)c3)nn2)[C@@H](O)[C@@H](CO)O[C@@H]1CC1=NO[C@]2(CC[C@H](NC3CC3)CC2)C1` [Example 2.22, (2R,3R,4S,5R,6R)-6-(((5r,8R)-8-(cyclopropylamino)-1-oxa-2-azaspiro[4.5]dec-2-en-3-yl)methyl)-2-(hydroxymethyl)-5-methoxy-4-(4-(3,4,5-trifluorophenyl)-1H-1,2,3-triazol-1-yl)tetrahydro-2H-pyran-3-ol] were 1.3 µM and 0.14 µM.
In the case of `CO[C@@H]1[C@@H](n2cc(-c3ccc(F)c(F)c3F)nn2)[C@@H](O)[C@@H](CO)O[C@@H]1CC1=NO[C@]2(CC[C@@H](C(C)(C)O)CC2)C1` [Example 1.53, (2R,3R,4S,5R,6R)-2-(hydroxymethyl)-6-(((5s,8S)-8-(2-hydroxypropan-2-yl)-1-oxa-2-azaspiro[4.5]dec-2-en-3-yl)methyl)-5-methoxy-4-(4-(2,3,4-trifluorophenyl)-1H-1,2,3-triazol-1-yl)tetrahydro-2H-pyran-3-ol], the IC50 was 1.2 µM on human Gal-1 (hGal-1) and 0.27 µM at human Gal-3 (hGal-3).
For `CO[C@@H]1[C@@H](n2cc(-c3cc(F)c(F)c(F)c3)nn2)[C@@H](O)[C@@H](CO)O[C@@H]1CC1=NO[C@]2(CC[C@H](NCC(F)F)CC2)C1` [Example 2.20, (2R,3R,4S,5R,6R)-6-(((5r,8R)-8-((2,2-difluoroethyl)amino)-1-oxa-2-azaspiro[4.5]dec-2-en-3-yl)methyl)-2-(hydroxymethyl)-5-methoxy-4-(4-(3,4,5-trifluorophenyl)-1H-1,2,3-triazol-1-yl)tetrahydro-2H-pyran-3-ol] the same measures were 1.8 µM and 0.11 µM.
Regarding `CO[C@@H]1[C@@H](n2cc(-c3ccc(F)c(F)c3F)nn2)[C@@H](O)[C@@H](CO)O[C@@H]1CC1=NOC2(CCCCC2)C1` [Example 1.13, (2R,3R,4S,5R,6R)-6-((1-oxa-2-azaspiro[4.5]dec-2-en-3-yl)methyl)-2-(hydroxymethyl)-5-methoxy-4-(4-(2,3,4-trifluorophenyl)-1H-1,2,3-triazol-1-yl)tetrahydro-2H-pyran-3-ol], the values for the concentration for half-maximal inhibition (IC50) on human Gal-1 (hGal-1) and on human Gal-3 (hGal-3) were 0.52 µM and 0.14 µM, respectively.
For `CNC(=O)CO[C@@H]1[C@@H](n2cc(-c3cc(F)c(F)c(F)c3)nn2)[C@@H](O)[C@@H](CO)O[C@@H]1CC1=NOC2(CCCCC2)C1` [Example 1.70, 2-(((2R,3R,4S,5R,6R)-2-((1-oxa-2-azaspiro[4.5]dec-2-en-3-yl)methyl)-5-hydroxy-6-(hydroxymethyl)-4-(4-(3,4,5-trifluorophenyl)-1H-1,2,3-triazol-1-yl)tetrahydro-2H-pyran-3-yl)oxy)-N-methylacetamide] the same measures were 5.1 µM and 0.24 µM.
Taken in the same sequence, the figures for `CO[C@@H]1[C@@H](n2cc(-c3ccc(F)c(F)c3F)nn2)[C@@H](O)[C@@H](CO)O[C@@H]1CC1=NO[C@]2(CC[C@H](NC(=O)OC(C)(C)C)CC2)C1` [Example 1.41, tert-butyl ((5r,8R)-3-(((2R,3R,4S,5R,6R)-5-hydroxy-6-(hydroxymethyl)-3-methoxy-4-(4-(2,3,4-trifluorophenyl)-1H-1,2,3-triazol-1-yl)tetrahydro-2H-pyran-2-yl)methyl)-1-oxa-2-azaspiro[4.5]dec-2-en-8-yl)carbamate] were 0.3 µM and 0.012 µM.
Taken in the same sequence, the figures for `CO[C@@H]1[C@@H](n2cc(-c3cc(F)c(F)c(F)c3)nn2)[C@@H](O)[C@@H](CO)O[C@@H]1CC1=NOC2(CCC(C)(C)CC2)C1` [Example 1.29, (2R,3R,4S,5R,6R)-6-((8,8-dimethyl-1-oxa-2-azaspiro[4.5]dec-2-en-3-yl)methyl)-2-(hydroxymethyl)-5-methoxy-4-(4-(3,4,5-trifluorophenyl)-1H-1,2,3-triazol-1-yl)tetrahydro-2H-pyran-3-ol] were 2.2 µM and 0.44 µM.
